# Measurements from article PMC8286840, “Identifying SARS-CoV-2 antiviral compounds by screening for small molecule inhibitors of Nsp3 papain-like protease” (Biochemical Journal, 2021).
# Where a name gives a salt, the structure may show the parent alone. Read-outs that look alike come from different tables or passages of the source.
# What was measured:
# [1] = target: T1, SARS-CoV-2 PLpro (nsp3 1564–1878) (Severe acute respiratory syndrome coronavirus 2, UniProt P0DTD1); assay: biochemical; parameters: FRET-quenched peptide (Pro3) cleavage by PLpro, 10 min pre-incubation, slope over 20 min, normalised to no-compound control; settings: low concentration screen, read-out: % of control remaining
# [2] = target: T1, SARS-CoV-2 PLpro (nsp3 1564–1878); assay: biochemical; parameters: FRET-quenched peptide (Pro3) cleavage by PLpro, 10 min pre-incubation, slope over 20 min, normalised to no-compound control; settings: high concentration screen, read-out: % of control remaining
structure (smiles),measurement,setting,value
N[C@@H](CCO)C(=O)O [L-Homoserine],remaining activity at 1.25 µM,[1]; Well no.=6821,100%
same,remaining activity at 3.75 µM,[2]; Well no.=6821,101%
C=C1CC[C@H](O)C/C1=C/C=C1\CCC[C@]2(C)[C@@H]([C@H](C)/C=C/[C@H](C)C(C)C)CC[C@@H]12 [Vitamin D2 (Ergocalciferol)],remaining activity at 1.25 µM,[1]; Well no.=4684,99.3%
same,remaining activity at 3.75 µM,[2]; Well no.=4684,100%
CC(=O)NCCc1c[nH]c2ccccc12 [N-Acetyltryptamine],remaining activity at 1.25 µM,[1]; Well no.=100,97.2%
same,remaining activity at 3.75 µM,[2]; Well no.=100,96.6%
"COc1cccc(-c2cc(=O)c3ccccc3o2)c1N [PD 98,059]",remaining activity at 1.25 µM,[1]; Well no.=1457,94.9%
same,remaining activity at 3.75 µM,[2]; Well no.=1457,95.8%
COc1cc2c(cc1OC)[C@H]1CC(=O)[C@H](CC(C)C)CN1CC2 [(+)-Tetrabenazine],remaining activity at 1.25 µM,[1]; Well no.=8086,107%
same,remaining activity at 3.75 µM,[2]; Well no.=8086,108%
N#CC[C@H](C1CCCC1)n1cc(-c2ncnc3[nH]ccc23)cn1 [S-Ruxolitinib],remaining activity at 1.25 µM,[1]; Well no.=4841,96.7%
same,remaining activity at 3.75 µM,[2]; Well no.=4841,97.5%
CCn1cnc2c(Nc3cccc(Cl)c3)nc(N[C@@H]3CCCC[C@@H]3N)nc21 [CGP-74514A hydrochloride],remaining activity at 1.25 µM,[1]; Well no.=268,92.8%
same,remaining activity at 3.75 µM,[2]; Well no.=268,94.1%
"CN(C)CCC(c1ccc(Cl)cc1)c1ccccn1 (single isomer, unassigned; (+)) [(+)-Chlorpheniramine maleate]",remaining activity at 1.25 µM,[1]; Well no.=130,105%
same,remaining activity at 3.75 µM,[2]; Well no.=130,105%
CCOC(=O)c1c(C)[nH]c(/C=C2\C(=O)Nc3ccccc32)c1C [VEGF Receptor 2 Kinase Inhibitor I],remaining activity at 1.25 µM,[1]; Well no.=2645,97.1%
same,remaining activity at 3.75 µM,[2]; Well no.=2645,102%
O=C(O)/C=C/c1ccc(Cn2ccnc2)cc1 [Ozagrel HCl],remaining activity at 1.25 µM,[1]; Well no.=4726,108%
same,remaining activity at 3.75 µM,[2]; Well no.=4726,101%
CCC(=O)O[C@@H](O[P@](=O)(CCCCc1ccccc1)CC(=O)N1C[C@H](C2CCCCC2)C[C@H]1C(=O)O)C(C)C [Fosinopril],remaining activity at 1.25 µM,[1]; Well no.=1904,89.9%
same,remaining activity at 3.75 µM,[2]; Well no.=1904,89.1%
CN(C)Cc1cccc(N/C(=C2\C(=O)Nc3cc(C(N)=O)ccc32)c2ccccc2)c1 [BIX 02188],remaining activity at 1.25 µM,[1]; Well no.=5283,96.6%
same,remaining activity at 3.75 µM,[2]; Well no.=5283,93.8%
O=C(O)c1cc2cc(Cc3cccnc3)ccc2o1 [Furegrelate sodium],remaining activity at 1.25 µM,[1]; Well no.=563,97.2%
same,remaining activity at 3.75 µM,[2]; Well no.=563,97.3%
CCCCC[C@H](O)/C=C/[C@H]1C=CC(=O)[C@@H]1CCCCCCC(=O)O [Prostaglandin A1],remaining activity at 1.25 µM,[1]; Well no.=3086,99.1%
same,remaining activity at 1.25 µM,[1]; Well no.=4235,89.4%
same,remaining activity at 3.75 µM,[2]; Well no.=3086,101%
same,remaining activity at 3.75 µM,[2]; Well no.=4235,94.9%
COc1cc([C@@H]2CC(=O)c3c(O)cc(O)cc3O2)ccc1O [Homoeriodictyol],remaining activity at 1.25 µM,[1]; Well no.=3683,98.7%
same,remaining activity at 3.75 µM,[2]; Well no.=3683,98.2%
"CC(N)[C@H](O)c1ccc(O)c(O)c1 (single isomer, unassigned; (-)) [(-)-alpha-Methylnorepinephrine]",remaining activity at 1.25 µM,[1]; Well no.=547,102%
same,remaining activity at 3.75 µM,[2]; Well no.=547,103%
N[C@H](CC(=O)O)C(=O)O [(-)-Aspartic acid],remaining activity at 1.25 µM,[1]; Well no.=7063,103%
same,remaining activity at 3.75 µM,[2]; Well no.=7063,102%
N=C(NC(=O)c1nc(Cl)c(N)nc1N)Nc1ccccc1 [Phenamil methanesulfonate],remaining activity at 1.25 µM,[1]; Well no.=1313,101%
same,remaining activity at 3.75 µM,[2]; Well no.=1313,99.6%
"CC(C)[C@H]1C(=O)N[C@@H](CCCNC(=N)N)C(=O)NCC(=O)N[C@@H](CC(=O)O)C(=O)N[C@H](Cc2ccccc2)C(=O)N1C [Cilengitide (EMD 121974, NSC 707544)]",remaining activity at 1.25 µM,[1]; Well no.=5174,94.8%
same,remaining activity at 3.75 µM,[2]; Well no.=5174,96.2%
Clc1ccc(N2C[C@H]3CC[C@@H](C2)N3)nn1 [DBO-83],remaining activity at 1.25 µM,[1]; Well no.=630,63.4%
same,remaining activity at 3.75 µM,[2]; Well no.=630,98.1%
CN1CCCCC1CCN1c2ccccc2Sc2ccc([S+](C)[O-])cc21 (stereo not shown) [Mesoridazine besylate],remaining activity at 1.25 µM,[1]; Well no.=2110,97.7%
same,remaining activity at 3.75 µM,[2]; Well no.=2110,99.5%
N#Cc1cc(NC(=O)C(=O)O)c(Cl)c(NC(=O)C(=O)O)c1 [Lodoxamide],remaining activity at 1.25 µM,[1]; Well no.=8241,107%
same,remaining activity at 3.75 µM,[2]; Well no.=8241,105%
